What follows are compounds tested against Recombinant human KIF18A (1-467 His-tagged) protein (Homo sapiens (Human), UniProt Q8NI77) (assay: KIF18A Enzyme Assay: microtubule-stimulated ATPase activity (ADP-Glo)). Details: read-out: KIF18A ATPase IC50.
Sequence of Recombinant human KIF18A (1-467 His-tagged) protein (Q8NI77 1-467): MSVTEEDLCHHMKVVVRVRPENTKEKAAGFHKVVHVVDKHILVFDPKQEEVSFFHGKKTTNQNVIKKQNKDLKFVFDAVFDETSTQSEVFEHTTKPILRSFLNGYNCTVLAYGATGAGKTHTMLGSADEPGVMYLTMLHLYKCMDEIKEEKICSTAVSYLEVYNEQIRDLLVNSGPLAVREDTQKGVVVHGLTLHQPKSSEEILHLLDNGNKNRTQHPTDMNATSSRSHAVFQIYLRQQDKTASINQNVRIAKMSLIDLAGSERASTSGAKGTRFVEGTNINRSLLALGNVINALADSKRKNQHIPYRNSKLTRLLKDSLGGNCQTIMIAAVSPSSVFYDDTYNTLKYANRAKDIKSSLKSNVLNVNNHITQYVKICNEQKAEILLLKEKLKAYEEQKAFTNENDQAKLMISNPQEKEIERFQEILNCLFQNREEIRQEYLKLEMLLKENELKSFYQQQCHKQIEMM
Sequence of Recombinant human KIF18A (1-467 His-tagged) protein (P02550 whole entry partner): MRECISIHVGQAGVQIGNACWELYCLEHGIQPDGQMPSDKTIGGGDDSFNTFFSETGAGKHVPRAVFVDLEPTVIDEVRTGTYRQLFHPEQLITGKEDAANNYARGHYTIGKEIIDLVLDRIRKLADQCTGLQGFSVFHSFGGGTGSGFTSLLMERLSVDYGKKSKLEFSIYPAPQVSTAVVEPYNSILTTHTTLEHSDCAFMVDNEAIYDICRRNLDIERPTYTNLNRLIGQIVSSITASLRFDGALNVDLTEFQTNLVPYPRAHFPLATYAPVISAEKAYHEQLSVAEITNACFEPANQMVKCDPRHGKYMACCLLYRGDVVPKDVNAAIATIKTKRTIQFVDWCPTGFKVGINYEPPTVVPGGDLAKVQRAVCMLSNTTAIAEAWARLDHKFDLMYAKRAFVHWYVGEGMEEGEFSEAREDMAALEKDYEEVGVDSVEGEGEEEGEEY
Sequence of Recombinant human KIF18A (1-467 His-tagged) protein (P02554 whole entry partner): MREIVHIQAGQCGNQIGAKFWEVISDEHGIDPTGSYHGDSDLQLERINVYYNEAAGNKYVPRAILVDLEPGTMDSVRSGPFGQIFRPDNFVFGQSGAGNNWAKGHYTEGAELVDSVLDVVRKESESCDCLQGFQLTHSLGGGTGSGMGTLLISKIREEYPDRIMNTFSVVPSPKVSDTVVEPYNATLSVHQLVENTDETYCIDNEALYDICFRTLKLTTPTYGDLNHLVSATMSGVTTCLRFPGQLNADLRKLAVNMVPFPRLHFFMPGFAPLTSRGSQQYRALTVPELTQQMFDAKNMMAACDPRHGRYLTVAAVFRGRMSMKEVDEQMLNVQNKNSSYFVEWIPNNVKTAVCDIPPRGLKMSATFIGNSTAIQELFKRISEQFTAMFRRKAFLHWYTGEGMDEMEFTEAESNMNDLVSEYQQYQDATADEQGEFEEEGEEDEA
Excerpt: KIF18A Enzyme Assay: Microtubule-stimulated ATPase activity assay is used to measure KIF18A enzyme activity after treatment with compound. Compounds were 2-fold serially diluted in DMSO (Sigma Inc) over 22-point concentration range. […] The assay measures ADP formed from the ATPase reaction.
With `Cc1cc(NC(=O)c2ccc(NS(=O)(=O)[C@H](C)CO)cc2N2CCC3(CC2)CC3)nc(N2CCC(F)(F)CC2)n1` [Example 5-1, (R)-N-(2-(4,4-Difluoropiperidin-1-yl)-6-methylpyrimidin-4-yl)-4-((2-hydroxy-1-methylethyl)sulfonamido)-2-(6-azaspiro[2.5]octan-6-yl)benzamide] the IC50 was 62 nM.

Same assay, conditions: read-out: KIF18A ATPase IC50; 30 nM KIF18A, 30 μg/mL pig microtubules, ATP at Km 75 μM, ADP-Glo luminescence
Compound `Cc1cc(NC(=O)c2ccc(NS(=O)(=O)CCO)cc2N2CCC3(CC2)CC3)nc(N2CCCC(F)(F)C2)n1` [Example 11-39, N-(2-(3,3-Difluoropiperidin-1-yl)-6-methylpyrimidin-4-yl)-4-((2-hydroxyethyl)sulfonamido)-2-(6-azaspiro[2.5]octan-6-yl)benzamide] has an IC50 of 45 nM. For `Cc1cc(NC(=O)c2ccc(S(=O)(=O)C(C)C)cc2N2CCC3(CC2)CC3)nc(N2CCC(F)(F)CC2)n1` [Example 14-3, N-(2-(4,4-Difluoropiperidin-1-yl)-6-methylpyrimidin-4-yl)-4-(isopropylsulfonyl)-2-(6-azaspiro[2.5]octan-6-yl)benzamide], the IC50 was 128 nM. `Cc1cc(NC(=O)c2ccc(NS(=O)(=O)[C@H](C)CO)cc2N2CCC3(CC2)CC3)nc(N2CCC(F)CC2)n1` [Example 6-25-2, (R)-N-(2-(4-Fluoropiperidin-1-yl)-6-methylpyrimidin-4-yl)-4-((2-hydroxy-1-methylethyl)sulfonamido)-2-(6-azaspiro[2.5]octan-6-yl)benzamide] gave an IC50 of 41 nM. Compound `Cc1cc(NC(=O)c2ccc(S(=O)(=O)C3CN(C)C3)cc2N2CCC3(CC2)CC3)nc(N2CCC(F)(F)CC2)n1` [Example 22, N-(2-(4,4-Difluoropiperidin-1-yl)-6-methylpyrimidin-4-yl)-4-((1-methylazetidin-3-yl)sulfonyl)-2-(6-azaspiro[2.5]octan-6-yl)benzamide] has an IC50 of 406 nM. Work on `Cc1cc(NC(=O)c2cc(F)c(NS(=O)(=O)CCO)cc2N2CCC3(CC2)CC3)nc(N2CCO[C@H](C)C2)n1` [Example 9-2, (R)-5-Fluoro-4-((2-hydroxyethyl)sulfonamido)-N-(6-methyl-2-(2-methylmorpholino)pyrimidin-4-yl)-2-(6-azaspiro[2.5]octan-6-yl)benzamide] yielded an IC50 of 158 nM. For `Cc1cc(NC(=O)c2cc(C)c(NS(=O)(=O)CCO)cc2N2CCC3(CC2)CC3)nc(N2CCC(F)(F)CC2)n1` [Example 6-35, N-(2-(4,4-Difluoropiperidin-1-yl)-6-methylpyrimdin-4-yl)-4-((2-hydroxyethyl)sulfonamido)-5-methyl-2-(6-azaspiro[2.5]octan-6-yl)benzamide], the IC50 was 144 nM. `CCS(=O)(=O)Nc1ccc(C(=O)Nc2cc(C)nc(N3CCO[C@H](C)C3)n2)c(N2CCC3(CC2)CC3)c1` [Example 6-6, (R)-4-(Ethylsulfonamido)-N-(6-methyl-2-(2-methylmorpholino)pyrimidin-4-yl)-2-(6-azaspiro[2.5]octan-6-yl)benzamide] showed an IC50 of 67 nM. `Cc1cc(NC(=O)c2ccc(NS(=O)(=O)CCCO)cc2N2CCC3(CC2)CC3)nc(N2CCC(F)(F)CC2)n1` [Example 6-15, N-(2-(4,4-Difluoropiperidin-1-yl)-6-methylpyrimidin-4-yl)-4-((3-hydroxypropyl)sulfonamido)-2-(6-azaspiro[2.5]octan-6-yl)benzamide] gave an IC50 of 86 nM. `Cc1cc(NC(=O)c2ccc(NS(=O)(=O)CCCO)cc2N2CCC3(CC2)CC3)nc(N2CCO[C@H](C)C2)n1` [Example 6-8, (R)-4-((3-Hydroxypropyl)sulfonamido)-N-(6-methyl-2-(2-methylmorpholino)pyrimidin-4-yl)-2-(6-azaspiro[2.5]octan-6-yl)benzamide] showed an IC50 of 107 nM. Compound `Cc1cc(NC(=O)c2ccc(S(C)(=O)=O)cc2N2CCC3(CC2)CC3)nc(N2CCC(F)(F)CC2)n1` [Example 2-6, N-(2-(4,4-Difluoropiperidin-1-yl)-6-methylpyrimidin-4-yl)-4-(methylsulfonyl)-2-(6-azaspiro[2.5]octan-6-yl)benzamide] has an IC50 of 260 nM. Compound `Cc1cc(NC(=O)c2ccc(NS(=O)(=O)[C@H]3CCOC3)cc2N2CCC3(CC2)CC3)nc(N2CC(F)(F)C2)n1` [Example 11-70, (S)-N-(2-(3,3-Difluoroazetidin-1-yl)-6-methylpyrimidin-4-yl)-2-(6-azaspiro[2.5]octan-6-yl)-4-((tetrahydrofuran)-3-sulfonamido)benzamide] has an IC50 of 72 nM. `CCS(=O)(=O)c1ccc(C(=O)Nc2cc(C)nc(N3CCC(F)(F)CC3)n2)c(N2CCC3(CC2)CC3)c1` [Example 14-2, N-(2-(4,4-Difluoropiperidin-1-yl)-6-methylpyrimidin-4-yl)-4-(ethylsulfonyl)-2-(6-azaspiro[2.5]octan-6-yl)benzamide] gave an IC50 of 108 nM. `Cc1cc(NC(=O)c2ccc(NS(=O)(=O)C(C)C)cc2N2CCC3(CC2)CC3)nc(N2CC(F)(F)C2)n1` [Example 11-75, N-(2-(3,3-Difluoroazetidin-1-yl)-6-methylpyrimidin-4-yl)-4-((1-methylethyl)sulfonamido)-2-(6-azaspiro[2.5]octan-6-yl)benzamide] was tested, and the IC50 was 56 nM. `Cc1cc(NC(=O)c2ccc(NS(=O)(=O)CCO)cc2N2CCC3(CC2)CC3)nc(N2CCC3(CC2)CC3)n1` [Example 11-31, 4-((2-Hydroxyethyl)sulfonamido)-N-(6-methyl-2-(6-azaspiro[2.5]octan-6-yl)pyrimidin-4-yl)-2-(6-azaspiro[2.5]octan-6-yl)benzamide] gave an IC50 of 146 nM. `Cc1cc(NC(=O)c2ccc(NS(=O)(=O)C[C@@H](C)O)cc2N2CCC3(CC2)CC3)nc(OCCC(F)(F)F)n1` [Example 6-28-1, (R)-4-((2-Hydroxypropyl)sulfonamido)-N-(6-methyl-2-(3,3,3-trifluoropropoxy)pyrimidin-4-yl)-2-(6-azaspiro[2.5]octan-6-yl)benzamide] showed an IC50 of 68 nM. `Cc1cc(NC(=O)c2ccc(NS(=O)(=O)CCO)cc2N2CCC(C)(C)CC2)nc(N2CCC(F)(F)CC2)n1` [Example 11-41, N-(2-(4,4-Difluoropiperidin-1-yl)-6-methylpyrimidin-4-yl)-2-(4,4-dimethylpiperidin-1-yl)-4-((2-hydroxyethyl)sulfonamido)benzamide] gave an IC50 of 127 nM. Compound `Cc1cc(NC(=O)c2ccc(NS(=O)(=O)CCO)cc2N2CCC3(CC2)CC3)nc(N2CC(F)(F)C2)n1` [Example 7, N-(2-(3,3-Difluoroazetidin-1-yl)-6-methylpyrimidin-4-yl)-4-((2-hydroxyethyl)sulfonamido)-2-(6-azaspiro[2.5]octan-6-yl)benzamide] has an IC50 of 23 nM. `Cc1cc(NC(=O)c2ccc(NS(=O)(=O)[C@@H](C)CO)cc2N2CCC3(CC2)CC3)nc(N2CCC(F)CC2)n1` [Example 6-25-1, (S)-N-(2-(4-fluoropiperidin-1-yl)-6-methylpyrimidin-4-yl)-4-((2-hydroxy-1-methylethyl)sulfonamido)-2-(6-azaspiro[2.5]octan-6-yl)benzamide] gave an IC50 of 47 nM. Work on `COc1cc(C(=O)Nc2cc(C)nc(N3CCC(F)(F)CC3)n2)c(N2CCC3(CC2)CC3)cc1NS(=O)(=O)CCO` [Example 6-36, N-(2-(4,4-Difluoropiperidin-1-yl)-6-methylpyrimidin-4-yl)-4-((2-hydroxyethyl)sulfonamido)-5-methoxy-2-(6-azaspiro[2.5]octan-6-yl)benzamide] yielded an IC50 of 114 nM. For `Cc1cc(NC(=O)c2ccc(S(C)(=O)=O)cc2N2CCC3(CC2)CC3)nc(N[C@@H](C)CO)n1` [Example 1-2, (S)-N-(2-((1-Hydroxypropan-2-yl)amino)-6-methylpyrimidin-4-yl)-4-(methylsulfonyl)-2-(6-azaspiro[2.5]octan-6-yl)benzamide], the IC50 was 491 nM. For `Cc1cc(NC(=O)c2ccc([S@](=N)(=O)C3CC3)cc2N2CCC3(CC2)CC3)nc(N2CCC(F)(F)CC2)n1` (single isomer, unassigned) [Example 18-1, 2-(6-Azaspiro[2.5]octan-6-yl)-4-(R-cyclopropylsulfonimidoyl)-N-(2-(4,4-difluoro-1-piperidinyl)-6-methyl-4-pyrimidinyl)benzamide], the IC50 was 64 nM. For `CCS(=O)(=O)Nc1ccc(C(=O)Nc2cc(C)nc(N3CCC(F)(F)CC3)n2)c(N2CCC3(CC2)CC3)c1` [Example 6-7, N-(2-(4,4-Difluoropiperidin-1-yl)-6-methylpyrimidin-4-yl)-4-(ethylsulfonamido)-2-(6-azaspiro[2.5]octan-6-yl)benzamide], the IC50 was 122 nM. Compound `Cc1cc(NC(=O)c2ccc(NS(=O)(=O)CCO)cc2N2CCC3(CC2)CC3)cc(N2CCC(F)(F)CC2)n1` [Example 6-30, N-(2-(4,4-Difluoropiperidin-1-yl)-6-methylpyridin-4-yl)-4-((2-hydroxyethyl)sulfonamido)-2-(6-azaspiro[2.5]octan-6-yl)benzamide] has an IC50 of 38.4 nM. `O=C(Nc1ccnc(OCCC(F)(F)F)c1)c1ccc(NS(=O)(=O)CCO)cc1N1CCC2(CC1)CC2` [Example 11-59, 4-((2-Hydroxyethyl)sulfonamido)-2-(6-azaspiro[2.5]octan-6-yl)-N-(2-(3,3,3-trifluoropropoxy)pyridin-4-yl)benzamide] showed an IC50 of 58 nM. For `CCS(=O)(=O)Nc1ccc(C(=O)Nc2cc(C)nc(N3CCC(F)CC3)n2)c(N2CCC3(CC2)CC3)c1` [Example 11-82, 4-(Ethylsulfonamido)-N-(2-(4-fluoropiperidin-1-yl)-6-methylpyrimidin-4-yl)-2-(6-azaspiro[2.5]octan-6-yl)benzamide], the IC50 was 51 nM. `Cc1cc(NC(=O)c2ccc(NS(=O)(=O)C[C@@H](C)O)cc2N2CCC3(CC2)CC3)nc(N2CCC(F)(F)CC2)n1` [Example 6-32-1, (R)-N-(2-(4,4-Difluoropiperidin-1-yl)-6-methylpyrimidin-4-yl)-4-((2-hydroxypropyl)sulfonamido)-2-(6-azaspiro[2.5]octan-6-yl)benzamide] gave an IC50 of 112 nM. For `Cc1cc(NC(=O)c2ccc(NS(=O)(=O)CCO)cc2N2CCC3(CC2)CC3)nc(N2CCC(O)CC2)n1` [Example 11-37, 4-((2-Hydroxyethyl)sulfonamido)-N-(2-(4-hydroxypiperidin-1-yl)-6-methylpyrimidin-4-yl)-2-(6-azaspiro[2.5]octan-6-yl)benzamide], the IC50 was 144 nM.

Reference: patent US11236069B2, “KIF18A inhibitors” (AMGEN INC., priority 2018, dated 2022)
